These results are taken from PubChem BioAssay AID330 (DTP/NCI, 2004).

The experiment concerns P388 leukemia ip, CD2F1 mice, survival T/C. The experiment can be described thus: NCI In Vivo Anticancer Drug Screen. Data for tumor model P388 Leukemia (intraperitoneal) in CD2F1 (CDF1) mice. Conditions: endpoint: median survival time, higher = longer survival. The method, boiled down:
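Mice carrying the transplanted tumor received test compound or vehicle. Survival was recorded in each group, and the value is the treated-group measurement divided by that of the vehicle-treated control group.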

The mark [1] stands for this setting: dose: 50.0 mg/kg/injection, schedule: Q01DX009 (ip), vehicle: saline with Tween-80.
Where [2] appears, read: dose: 100.0 mg/kg/injection, schedule: Q01DX009 (ip), vehicle: saline with Tween-80.
Setting [3] is: dose: 200.0 mg/kg/injection, schedule: Q01DX009 (ip), vehicle: saline with Tween-80.
Where [4] appears, read: dose: 100.0 mg/kg/injection, schedule: Q04DX003 (ip), vehicle: saline.
Setting [5] is: dose: 200.0 mg/kg/injection, schedule: Q04DX003 (ip), vehicle: saline.
Where [6] appears, read: dose: 400.0 mg/kg/injection, schedule: Q04DX003 (ip), vehicle: saline.
The mark [7] stands for this setting: dose: 60.0 mg/kg/injection, schedule: Q01DX005 (ip), vehicle: saline with Tween-80.
The mark [8] stands for this setting: dose: 50.0 mg/kg/injection, schedule: Q01DX005 (ip), vehicle: saline with Tween-80.
The mark [9] stands for this setting: dose: 100.0 mg/kg/injection, schedule: Q01DX005 (ip), vehicle: saline with Tween-80.
The mark [10] stands for this setting: dose: 200.0 mg/kg/injection, schedule: Q01DX005 (ip), vehicle: saline with Tween-80.
The mark [11] stands for this setting: dose: 50.0 mg/kg/injection, schedule: Q01DX005 (ip), vehicle: Klucel (hydroxypropylcellulose) (HPC).
Where [12] appears, read: dose: 100.0 mg/kg/injection, schedule: Q01DX005 (ip), vehicle: Klucel (hydroxypropylcellulose) (HPC).
Setting [13] is: dose: 200.0 mg/kg/injection, schedule: Q01DX005 (ip), vehicle: Klucel (hydroxypropylcellulose) (HPC).
Setting [14] is: dose: 120.0 mg/kg/injection, schedule: Q01DX005 (ip), vehicle: saline with Tween-80.
Where [15] appears, read: dose: 240.0 mg/kg/injection, schedule: Q01DX005 (ip), vehicle: saline with Tween-80.

“And” between values parts separate entries of the source, which are not always exact repeats. Equal values may be shown once. Inconclusive results and toxic doses are left out.

Turning to `OC(CN1CCOCC1)c1ccccn1` (stereo not drawn), the T/C reads like this: (dose: 50.0 mg/kg/injection, schedule: Q01DX009 (ip), vehicle: saline) 95 % of control; (dose: 100.0 mg/kg/injection, schedule: Q01DX009 (ip), vehicle: saline) 92 % of control; (dose: 200.0 mg/kg/injection, schedule: Q01DX009 (ip), vehicle: saline) 92 % of control.

In the case of `CC(Sc1ccccc1)C(=O)N1CCCC1` (stereo not drawn), the T/C under setting [1] was 106 % of control, the T/C under setting [2] is 103 % of control and the T/C under setting [3] is 105 % of control.

Turning to `CCCCCCCCN(c1ccc(C(=O)NC(CCC(=O)OCC)C(=O)OCC)cc1)S(=O)(=O)c1ccc(C)cc1` (stereo not drawn), the T/C was 104 % of control (dose: 12.5 mg/kg/injection, schedule: Q04DX003 (ip), vehicle: saline with Tween-80); 100 % of control (dose: 25.0 mg/kg/injection, schedule: Q04DX003 (ip), vehicle: saline with Tween-80); 95 % of control (dose: 50.0 mg/kg/injection, schedule: Q04DX003 (ip), vehicle: saline with Tween-80).

Consider `c1csc(CSc2ncnc3nc[nH]c23)c1`, for which the T/C was 100 % of control (dose: 100.0 mg/kg/injection, schedule: Q04DX003 (ip), vehicle: saline with Tween-80); 100 % of control (dose: 200.0 mg/kg/injection, schedule: Q04DX003 (ip), vehicle: saline with Tween-80); 100 % of control (dose: 264.0 mg/kg/injection, schedule: Q04DX003 (ip), vehicle: saline with Tween-80); 109 % of control (dose: 400.0 mg/kg/injection, schedule: Q04DX003 (ip), vehicle: saline with Tween-80).

`C=CN=NNc1cc(OC)ccc1OC`: the T/C reads like this: (dose: 100.0 mg/kg/injection, schedule: Q04DX003 (ip), vehicle: saline + Tween-80 + alcohol) 105 % of control; (dose: 200.0 mg/kg/injection, schedule: Q04DX003 (ip), vehicle: saline + Tween-80 + alcohol) 103 % of control; (dose: 400.0 mg/kg/injection, schedule: Q04DX003 (ip), vehicle: saline + Tween-80 + alcohol) 102 % of control.

Turning to `O=C(O)CC(Cc1ncnc2c1ncn2C1OC(CO)C(O)C1O)C(=O)O` (stereo not drawn), the T/C runs as follows: under setting [4], 100 % of control; under setting [5], 99 % of control; under setting [6], 99 % of control.

Regarding `CCN(CC)C1C(Br)c2ccccc2C(OC)N1C#N` (stereo not drawn), the T/C (dose: 50.0 mg/kg/injection, schedule: Q01DX005 (ip), vehicle: distilled water + Tween-80 + alcohol) was 103 % of control and the T/C (dose: 100.0 mg/kg/injection, schedule: Q01DX005 (ip), vehicle: distilled water + Tween-80 + alcohol) was 107 % of control.

In the case of `C[n+]1cc(Cl)cc(Br)c1`, the T/C (dose: 25.0 mg/kg/injection, schedule: Q01DX005 (ip), vehicle: saline) is 117 % of control.

Regarding `c1ccc2c(c1)N=Nc1ccccc1OCCOCCOCCOCCO2`, the T/C is 106 % of control (dose: 100.0 mg/kg/injection, schedule: Q04DX002 (ip), vehicle: saline with Tween-80); 100 % of control (dose: 200.0 mg/kg/injection, schedule: Q04DX002 (ip), vehicle: saline with Tween-80); 99 % of control (dose: 400.0 mg/kg/injection, schedule: Q04DX002 (ip), vehicle: saline with Tween-80).

In the case of `C=C(C)[C@H]1C[C@]2(C)[C@@H](C)CC(=O)C[C@H]2[C@@H](OC(=O)/C(C)=C\C)[C@@H]1OC(=O)/C(C)=C/C`, the T/C is, setting by setting: (dose: 130.0 mg/kg/injection, schedule: Q01DX001 (ip), vehicle: Klucel (hydroxypropylcellulose) (HPC)) 100 % of control; (dose: 260.0 mg/kg/injection, schedule: Q01DX001 (ip), vehicle: Klucel (hydroxypropylcellulose) (HPC)) 99 % of control; (dose: 520.0 mg/kg/injection, schedule: Q01DX001 (ip), vehicle: Klucel (hydroxypropylcellulose) (HPC)) 100 % of control.

As for `COc1ccc(-c2cn3c([nH]c(=O)c4ccccc43)c2C#N)cc1`, the T/C (dose: 15.0 mg/kg/injection, schedule: Q01DX005 (ip), vehicle: saline with Tween-80) was 86 % of control; the T/C (dose: 30.0 mg/kg/injection, schedule: Q01DX005 (ip), vehicle: saline with Tween-80) was 88 % of control; the T/C under setting [7] was 86 % of control.

As for `Cc1ccccc1NC(=S)NC1C(=O)Nc2ccccc21` (stereo not drawn), the T/C by setting is: under setting [8], 101 % of control; under setting [9], 107 % of control; under setting [10], 98 % of control.

In the case of `Cc1cc2nc3c(C4OCC(O)C4O)nn(-c4ccccc4)c3nc2cc1C` (stereo not drawn), the T/C is 93 % of control (dose: 3.12 mg/kg/injection, schedule: Q01DX005 (ip), vehicle: Klucel (hydroxypropylcellulose) (HPC)); 88 % of control (dose: 6.25 mg/kg/injection, schedule: Q01DX005 (ip), vehicle: Klucel (hydroxypropylcellulose) (HPC)); 88 % of control under setting [11]; 93 % of control under setting [12]; 103 % of control under setting [13].

Turning to `O=C1C=CC(=O)N1C1CCCCC1`, the T/C was 97 % of control (dose: 6.25 mg/kg/injection, schedule: Q01DX009 (ip), vehicle: Klucel (hydroxypropylcellulose) (HPC)); 100 % of control (dose: 12.5 mg/kg/injection, schedule: Q01DX009 (ip), vehicle: Klucel (hydroxypropylcellulose) (HPC)); 97 % of control (dose: 25.0 mg/kg/injection, schedule: Q01DX009 (ip), vehicle: Klucel (hydroxypropylcellulose) (HPC)).

For the compound `CC(=O)c1cccc(OC(=O)Nc2ccccc2)c1`, the T/C was 96 % of control under setting [8], 90 % of control under setting [9] and 98 % of control under setting [10].

Take `C/C=C/c1ccc(OC(C)C(=O)c2ccc(OC)c(OC)c2)c(OC)c1` (stereo not drawn): the T/C runs as follows: (dose: 10.0 mg/kg/injection, schedule: Q01DX005 (ip), vehicle: Klucel (hydroxypropylcellulose) (HPC)) 97 % of control; (dose: 20.0 mg/kg/injection, schedule: Q01DX005 (ip), vehicle: Klucel (hydroxypropylcellulose) (HPC)) 100 % of control; (dose: 40.0 mg/kg/injection, schedule: Q01DX005 (ip), vehicle: Klucel (hydroxypropylcellulose) (HPC)) 99 % of control.

For the compound `O=S(=O)(O)C(O)c1cccc(Cl)c1` (stereo not drawn), the T/C runs as follows: under setting [4], 100 % of control; under setting [5], 110 % of control; under setting [6], 103 % of control.

As for `COc1ccc(C)cc1C(CC(=O)O)CC(=O)N(CCCl)CCCl` (stereo not drawn), the T/C under setting [4] was 102 % of control, the T/C under setting [5] was 100 % of control and the T/C under setting [6] is 102 % of control.

Regarding `NCC(O)c1cccc(O)c1` (stereo not drawn), the T/C by setting is: (dose: 6.25 mg/kg/injection, schedule: Q01DX009 (ip), vehicle: saline) 101 % of control and 92 % of control; (dose: 12.5 mg/kg/injection, schedule: Q01DX009 (ip), vehicle: saline) 101 % of control and 95 % of control; (dose: 25.0 mg/kg/injection, schedule: Q01DX009 (ip), vehicle: saline) 100 % of control.

Turning to `CC(C)CN1C(=O)C2C3CCC(O3)C2C1=O` (stereo not drawn), the T/C under setting [7] was 91 % of control, the T/C under setting [14] was 91 % of control and the T/C under setting [15] was 91 % of control.

Turning to `C=CCc1ccc(OC(=O)Nc2ccc(C)cc2[N+](=O)[O-])c(OC)c1`, the T/C is 88 % of control under setting [1], 88 % of control under setting [2] and 95 % of control under setting [3].

On to `COc1ccc(C(=O)CC(=O)CCC(=O)Nc2cc(C)ccc2C)cc1`, for which the T/C reads like this: under setting [7], 101 % of control; under setting [14], 105 % of control; under setting [15], 97 % of control.

Consider `S=C(NCCN1CCN2Cc3[nH]c4ccccc4c3CC2C1)Nc1ccccc1` (stereo not drawn), for which the T/C is 94 % of control under setting [8], 91 % of control under setting [9] and 102 % of control under setting [10].

With `CC1NC(=O)N(Cc2ccccc2Cl)C1=O` (stereo not drawn), the T/C was 110 % of control under setting [11], 106 % of control under setting [12] and 110 % of control under setting [13].

Take `NC(=S)NNC(=O)C(Cc1ccccc1)NC(=O)OCc1ccccc1` (stereo not drawn): under setting [1], the T/C is 93 % of control.

Consider `CCOc1c(N=Nc2ccc(Cl)cc2)c(C)nn1C(=S)S`, for which the T/C (dose: 60.0 mg/kg/injection, schedule: Q01DX005 (ip), vehicle: Klucel (hydroxypropylcellulose) (HPC)) was 96 % of control and the T/C (dose: 120.0 mg/kg/injection, schedule: Q01DX005 (ip), vehicle: Klucel (hydroxypropylcellulose) (HPC)) is 97 % of control.

As for `CCOP(=O)(Nc1ccc(C)cc1)OCC`, the T/C runs as follows: (dose: 100.0 mg/kg/injection, schedule: Q01DX001 (ip), vehicle: saline) 104 % of control; (dose: 200.0 mg/kg/injection, schedule: Q01DX001 (ip), vehicle: saline) 109 % of control; (dose: 400.0 mg/kg/injection, schedule: Q01DX001 (ip), vehicle: saline) 105 % of control.
